Like-named read-outs stand apart in the source and are kept apart here. Where a SMILES comes first, the peptide text is derived from it. Bridges are numbered along the chain shown (N, C = ends). [ ]: non-standard residue; d: D form.

We go through four molecules from patent publication US9896482B2, “Beta hairpin peptides having antiviral properties against Dengue virus” (CENTRO DE INGENIERÍA GENÉTICA Y BIOTECNOLOGÍA, priority 2014, dated 2018).

Series [1] relates to DENV serotype 2 (NIBSC code S16803). Kind of series: Plaque reduction assay in Vero cells, DENV2. Format: cell-based, Dengue virus. The procedure: (§1) The cells were grown in 24 well plates until the monolayer reached approximately 90% confluence, after which they were washed twice with MEM medium without Fetal Bovine Serum (FBS). Then, peptide dilutions were added and the cell-peptide mixtures were incubated typically for 1 hour at 37° C., followed by the addition of a DENV serotype 2 preparation (NIBSC code S16803) at a multiplicity of infection (m.o.i.) of 0.001. The cells were then incubated for 1 hour at 37° C., and once the period of incubation with the viral inoculum concluded, were washed again to remove unbound virions and incubated for 5 days at 37° C. in high density medium (MEM supplemented with non-essential amino acids, 1% FBS, 1% carboxymethylcellulose) in order to let viral plaques form. Afterwards, the cells were stained with 0.1% Naphtol Blue Black in 0.15 M sodium acetate. Two replicates per experimental point were used in each assay, and three independent determinations were performed for each sample.
Next, it was decided to compare the antiviral activity of peptides PHB4 and HDIII3CL against all four DENV serotypes, with the objective of comparing their respective IC50 values. This comparison was performed with plaque reduction assays on Vero cells, adding the viral inoculum for each serotype (DENV1, NIBSC code West Pac 74, DENV2, NIBSC, code S16803; DENV3, NIBSC, code CH53489; DENV 4, NIBSC code TVP360) at a m.o.i. of 0.001.

A further series has as its system Vero cells. The series is described as follows: Toxicity in Vero cells (MTT assay and manual cell counting). To be noted: ‡ non toxic at 1000 μM. The class given is cell-based. The procedure:
(§2) The toxicity of the beta hairpin peptides was assessed with the MTT (3-(4,5-dimethylthiazol-2-yl)-2,5-diphenyltetrazolium bromide, Invitrogen, USA) assay (Mosmann, T. (1983). J. Immunol. Methods 65, 55-63.), and by manual cell counting using a Neubauer chamber. Ninety-six well plates (Costar, USA) were seeded with 200 μL/well of a suspension containing Vero cells at 1×10^5 cells/mL and incubated until the monolayers reached approximately 90% confluence, typically for 18-24 h. After washing the cells twice with DMEM (Dulbecco's Modified Eagle Medium) medium, 50 μL/well were added of the peptide or additive dilutions to be evaluated (Triton ^X-100™ dissolved in PBS was used as positive toxicity control) and the plates were incubated at 37° C. under a 5% CO2 atmosphere for 2 or 24 h. Two different procedures were then employed to measure toxicity: • a) A 2 mg/mL solution of MTT in PBS was added (50 μL/well) and the plates were incubated for further 4 h at 37° C., 5% CO2. The medium was then removed, and 100 μL/well of DMSO were then added to solubilize formazan precipitates. Finally, the optical density (OD) of the supernatants at a wavelength of 540 nm was measured using a plate reader (Sensident Scan™, Merck, Germany). • b) The plates were washed with 200 μL/well of DMEM medium and then a trypsin solution (Sigma, USA) was added at 50 μL/well. After inactivating the trypsin by adding 150 μL/well of DMEM supplemented with 10% FBS, the cells were counted using the Trypan Blue (Gibco, USA) vital stain. The data were processed using the statistical software package Prism v5.3 (GraphPad, USA), using non-linear regression to fit them to a log10 (concentration) vs response curve.
(In general: Tetrazolium assays rely on reduction of a dye to a coloured formazan, in cell work by metabolically active cells.)

Series [2] relates to DENV1 (NIBSC code West Pac 74). Kind of series: Plaque reduction assay in Vero cells, DENV1. The class given is cell-based, Dengue virus. The following applies: m.o.i. 0.001, read-out: Antiviral activity IC50 vs DENV1. The procedure: as §1
(§3) Next, it was decided to compare the antiviral activity of peptides PHB4 and HDIII3CL against all four DENV serotypes, with the objective of comparing their respective IC50 values. […]
For orientation: Plaques are areas of infected cells; plaque reduction assays count them against a control.

The test system of series [3] is DENV3 (NIBSC code CH53489). Kind of series: Plaque reduction assay in Vero cells, DENV3. Format: cell-based, Dengue virus. To be noted: m.o.i. 0.001, read-out: Antiviral activity IC50 vs DENV3. The procedure:
as §1, §3

In series [4] the test system is DENV 4 (NIBSC code TVP360). The series is described as follows: Plaque reduction assay in Vero cells, DENV4. The following applies: m.o.i. 0.001, read-out: Antiviral activity IC50 vs DENV4. The class given is cell-based, Dengue virus. How it is done: as §1, §3
A short description of series [5]: Toxicity in Vero cells (MTT assay and manual cell counting). The class given is cell-based. To be noted: ‡ non toxic at 1000 μM, read-out: Ctox50. The procedure:
as §2

The target in series [6] is T1, sLRP1-CIV (Homo sapiens, UniProt Q07954).
T1 construct: purchased R&D Systems, USA
The series is described as follows: Biacore (SPR) binding to immobilized sLRP1-CIV. The following applies: double site model, maximum RU vs. concentration. How it is done:
The interaction of the beta hairpin peptides with soluble fragments of the LRP1 receptor was studied by Surface Plasmon Resonance (SPR), using a Biacore X unit. In this technique, one of the interaction partners to be studied is immobilized on the surface of a chip, and the other interaction partner is dissolved in a solution that runs through the measurement cell on top of the interaction surface, under conditions of controlled flow. The association and dissociation of interacting partners is measured in resonance units (RU) and plotted, as a function of time, on charts known as ‘sensorgrams’. SPR, therefore, enables the experimenter to obtain detailed information about the interaction without having to label either interaction partner.
In this example, one channel of a CM5 chip (GE Healthcare, USA) was used to immobilize protein sLRP1-CIV on its surface at high density (see Table 6) and recombinant Human Serum Albumin (rHSA, Sigma-Aldrich, USA) was immobilized on the other channel.
Although it was decided to immobilize sLRP1-CIV at high density because these conditions make easier the detection of any potential interactions with compounds whose molecular weight is lower than that of average proteins (such as the peptides this experiment is intended to study), it must be stressed that in high-density surfaces, mass transfer limitations and the possibility of multivalent binding make difficult the accurate determination of kinetic constants. Therefore, and in order to characterize in greater detail the sLRP1-CIV binding surface, different RAP dilutions (0.6-20 μM) were loaded, and RU were registered under conditions of interaction equilibria (250 sec, see FIG. 13B). […] The data also indicate that immobilized sLRP1-CIV faithfully reproduces the previously reported characteristics of the LRP1-RAP interaction.
The binding of beta hairpin peptides to sLRP1-CIV was studied by loading 20 μM dilutions in running buffer of the different peptide variants onto the sLRP1-CIV chip characterized above. The high strength of the resulting signals is consistent with the binding of aggregated, rather than monomeric forms of the peptides. Therefore, the observed variations between different peptides may reflect either differences in the affinity of unitary peptide interactions or differences in aggregation numbers and/or geometries that lead to variations in the number of peptide units able to simultaneously engage immobilized sLRP1-CIV molecules in a multivalent manner. […] The difference between peptides HDIII3CL2 and HDIII3CL is that the former has an additional C-terminal lysine and has, therefore, a stronger cationic character, which may facilitate additional electrostatic interactions with the negatively charged LRP1 receptor.
For orientation: In SPR one partner is held on a chip, and binding of the other changes the refractive index at the surface.

Series [7] has as its target T1, sLRP1-CIV. To be noted: other studies; read-out: Affinity of multi-point interaction with clusters II and IV of LRP1; cited from earlier work.
Setting [8] is: DENV2, plaque reduction, NA = no detectable activity at concentrations lower than or equal to 100 μM, read-out: IC50, antiviral activity in Vero cells (50% inhibitory activity).

A word on the IC50: it is the point on the concentration scale where inhibition reaches its midpoint. Consider `CC[C@H](C)[C@@H]1NC(=O)[C@H](Cc2ccccc2)NC(=O)[C@H](Cc2c[nH]c3ccccc23)NC(=O)[C@H](CC(N)=O)NC(=O)[C@H](C(C)C)NC(=O)[C@H](CCCCN)NC(=O)[C@H](CCCCN)NC(=O)[C@H](CC(=O)O)NC(=O)[C@H]2CCCN2C(=O)[C@H](CCC(=O)O)NC(=O)[C@H]([C@@H](C)O)NC(=O)[C@H](Cc2c[nH]c3ccccc23)NC(=O)[C@H](CC(N)=O)NC(=O)[C@H](C(C)C)NC(=O)[C@H](CCC(=O)O)NC(=O)[C@H]([C@@H](C)CC)NC(=O)[C@@H](N)CSSC[C@@H](C(=O)N[C@@H](CCCCN)C(=O)N[C@@H](CCCCN)C(=O)N[C@@H](CCCCN)C(N)=O)NC1=O` [PHB3] (H-CIEVNWTE[dP]DKKVNWFICKKK-NH2; disulfide 1-18), for which, in series [1] (setting [8]), the IC50 was 17 µM. In the series on Vero cells, the Ctox50 is reported as >>1000^‡ μM.
With `CC[C@H](C)[C@@H]1NC(=O)CNC(=O)[C@H]([C@@H](C)CC)NC(=O)[C@H](C(C)C)NC(=O)[C@H]([C@@H](C)CC)NC(=O)[C@H](CC(N)=O)NC(=O)[C@H](CO)NC(=O)[C@@H](N)CSSC[C@@H](C(=O)N[C@@H](CCCCN)C(=O)N[C@@H](CCCCN)C(N)=O)NC(=O)[C@H](Cc2c[nH]c3ccccc23)NC(=O)[C@H](CC(N)=O)NC(=O)[C@H]([C@@H](C)CC)NC(=O)[C@H](CCCCN)NC(=O)[C@H](CC(C)C)NC(=O)[C@H](C)NC(=O)[C@H](CCCCN)NC(=O)[C@H](CC(=O)O)NC(=O)CNC1=O` [HDIII3CL, reference compound] (H-CSNIVIGIGDKALKINWCKK-NH2; disulfide 1-18), the IC50 in series [1] (setting [8]) is 20 µM; in series [1] (Vero cells, m.o.i. 0.001, read-out: Antiviral activity IC50 vs DENV2), 20 µM; in series [2] it was 15 µM; in series [3], 20 µM; in series [4] it was 50 µM. Moreover, the CC50 in series [5] was 1000 µM.
As for `CC(C)[C@@H]1NC(=O)[C@H](CCCCN)NC(=O)[C@H](CCCCN)NC(=O)[C@H](CC(=O)O)NC(=O)[C@H]2CCCN2C(=O)[C@H](CCC(=O)O)NC(=O)[C@H]([C@@H](C)O)NC(=O)[C@H](Cc2c[nH]c3ccccc23)NC(=O)[C@H](CC(N)=O)NC(=O)[C@H](C(C)C)NC(=O)[C@@H](N)CSSC[C@@H](C(=O)N[C@@H](CCCCN)C(=O)N[C@@H](CCCCN)C(=O)N[C@@H](CCCCN)C(N)=O)NC(=O)[C@H](Cc2c[nH]c3ccccc23)NC(=O)[C@H](CC(N)=O)NC1=O` [PHB1] (H-CVNWTE[dP]DKKVNWCKKK-NH2; disulfide 1-14), the IC50 in series [1] (setting [8]) was found to be 75 µM. Besides, in the series with Vero cells, the Ctox50 is listed as >>1000^‡ μM.
Consider “RAP: Receptor-Associated Protein, a known LRP1 ligand”, for which the Kd with sLRP1-CIV [6] (read-out: Kd of high-affinity interaction) was 0.0042 µM; with sLRP1-CIV [6] (read-out: Kd of low-affinity interaction), 1.1 µM; in the series with sLRP1-CIV [7], 0.006 to 0.018 µM.
